Experimental data reported in ChEMBL document CHEMBL4715742, “Design, synthesis and cytotoxic activities of novel 2,5-diketopiperazine derivatives” (Eur J Med Chem, 2016).

Tests used:
Type in all cases: functional, cell-based
U-937 = experiment: Cytotoxicity against human U-937 cells assessed as reduction in cell viability measured after 72 hrs by CCK8 assay
K562 = experiment: Cytotoxicity against human K562 cells assessed as reduction in cell viability measured after 72 hrs by CCK8 assay
HL-60 = experiment: Cytotoxicity against human HL-60 cells assessed as reduction in cell viability measured after 72 hrs by CCK8 assay
A549 = experiment: Cytotoxicity against human A549 cells assessed as reduction in cell viability measured after 72 hrs by CCK8 assay
MCF7 = experiment: Cytotoxicity against human MCF7 cells assessed as reduction in cell viability measured after 72 hrs by CCK8 assay
HeLa = experiment: Cytotoxicity against human HeLa cells assessed as reduction in cell viability measured after 72 hrs by CCK8 assay
DU-145 = experiment: Cytotoxicity against human DU-145 cells assessed as reduction in cell viability measured after 72 hrs by CCK8 assay
HT-29 = experiment: Cytotoxicity against human HT-29 cells assessed as reduction in cell viability measured after 72 hrs by CCK8 assay
[1] = Homo sapiens, U-937, 72 h, read-out: IC50
[2] = Homo sapiens, K562, 72 h, read-out: IC50
[3] = Homo sapiens, A549, 72 h, read-out: IC50
[4] = Homo sapiens, MCF7, 72 h, read-out: IC50
[5] = Homo sapiens, HeLa, 72 h, read-out: IC50
[6] = Homo sapiens, DU-145, 72 h, read-out: IC50
[7] = Homo sapiens, HT-29, 72 h, read-out: IC50
[8] = Homo sapiens, HL-60, 72 h, read-out: IC50

Row | Structure (SMILES) | IC50 (U-937; u-937) | IC50 (K562; k562) | IC50 (HL-60; hl-60) | IC50 (A549; a549) | IC50 (MCF7; mcf7) | IC50 (HeLa; hela) | IC50 (DU-145; du-145) | IC50 (HT-29; ht-29) | IC50 (U-937; [1]) | IC50 (K562; [2]) | IC50 (A549; [3]) | IC50 (MCF7; [4]) | IC50 (HeLa; [5]) | IC50 (DU-145; [6]) | IC50 (HT-29; [7]) | IC50 (HL-60; [8])
1 | C=CCn1c(=O)/c(=C/CCCCCCCCCCCCCCC)[nH]c(=O)/c1=C/c1cccc(OC)c1 | Not Active | Not Active | Not Active | Not Active | Not Active | Not Active | Not Active | Not Active | – | – | – | – | – | – | – | –
2 | C=CCn1c(=O)/c(=C/CCCCCCCCCC)[nH]c(=O)/c1=C/c1cccc(OC)c1 | Not Active | Not Active | Not Active | Not Active | Not Active | Not Active | Not Active | Not Active | – | – | – | – | – | – | – | –
3 | C=CCn1c(=O)/c(=C/CCCCCCCCCCC)[nH]c(=O)/c1=C/c1cccc(OC)c1 | Not Active | Not Active | Not Active | Not Active | Not Active | Not Active | Not Active | Not Active | – | – | – | – | – | – | – | –
4 | C=CCn1c(=O)/c(=C/CC)[nH]c(=O)/c1=C/c1ccc(OC)cc1 | – | – | Not Active | – | – | – | – | – | 1.48 µM | 2.1 µM | 6.1 µM | 4.3 µM | 4.6 µM | 8.9 µM | 4.2 µM | –
5 | C=CCn1c(=O)/c(=C/CCCCCCCC)[nH]c(=O)/c1=C/c1cccc(OC)c1 | Not Active | Not Active | Not Active | Not Active | Not Active | Not Active | Not Active | Not Active | – | – | – | – | – | – | – | –
6 | C=CCn1c(=O)/c(=C/CCC)[nH]c(=O)/c1=C/c1ccc(OC)cc1 | – | – | – | – | – | – | – | – | 2.2 µM | 2.9 µM | 12.3 µM | 9.3 µM | 7.1 µM | 13.1 µM | 8.3 µM | 6.2 µM
7 | C=CCn1c(=O)/c(=C/CCCCC)[nH]c(=O)/c1=C/c1ccc(OC)cc1 | – | – | Not Active | – | – | – | – | – | 0.5 µM | 0.7 µM | 1.9 µM | 2.3 µM | 1.1 µM | 2.1 µM | 1.7 µM | –
8 | C=CCn1c(=O)/c(=C/CCCC)[nH]c(=O)/c1=C/c1ccccc1OC | – | – | – | – | – | – | – | – | 0.9 µM | 1.4 µM | 4 µM | 3.1 µM | 2.4 µM | 4.3 µM | 3.3 µM | 0.5 µM
9 | C=CCn1c(=O)/c(=C/CCC)[nH]c(=O)/c1=C/c1cccc(OC)c1 | Not Active | Not Active | Not Active | Not Active | Not Active | Not Active | Not Active | Not Active | – | – | – | – | – | – | – | –
10 | C=CCn1c(=O)/c(=C/CCCCCCCCC)[nH]c(=O)/c1=C/c1cccc(OC)c1 | Not Active | Not Active | Not Active | Not Active | Not Active | Not Active | Not Active | Not Active | – | – | – | – | – | – | – | –
11 | C=CCn1c(=O)/c(=C/CCCCCCCCCCCCCCC)[nH]c(=O)/c1=C/c1ccc(OC)cc1 | Not Active | Not Active | Not Active | Not Active | Not Active | Not Active | Not Active | Not Active | – | – | – | – | – | – | – | –
12 | C=CCn1c(=O)/c(=C/c2cccc(Cl)c2Cl)[nH]c(=O)/c1=C/c1ccccc1OC | – | – | – | – | – | – | – | – | 0.5 µM | 0.9 µM | 2.3 µM | 2.1 µM | 1.6 µM | 4.2 µM | 3.2 µM | 2 µM
13 | C=CCn1c(=O)/c(=C/CCCCCCC)[nH]c(=O)/c1=C/c1ccccc1OC | Not Active | Not Active | Not Active | Not Active | Not Active | Not Active | Not Active | Not Active | – | – | – | – | – | – | – | –
14 | C=CCn1c(=O)/c(=C/CCCCCCCCCCCCCCC)[nH]c(=O)/c1=C/c1ccccc1OC | Not Active | Not Active | Not Active | Not Active | Not Active | Not Active | Not Active | Not Active | – | – | – | – | – | – | – | –
15 | C=CCn1c(=O)/c(=C/CCCCCCC)[nH]c(=O)/c1=C/c1ccc(OC)cc1 | – | – | – | – | – | – | – | – | 1.1 µM | 1.5 µM | 2.9 µM | 2.8 µM | 2.3 µM | 2.9 µM | 2.2 µM | 28.2 µM
16 | C=CCn1c(=O)/c(=C/CCCCCC)[nH]c(=O)/c1=C/c1ccc(OC)cc1 | – | – | – | – | – | – | – | – | 0.6 µM | 0.9 µM | 2 µM | 2.4 µM | 1.6 µM | 2.2 µM | 1.6 µM | 3.4 µM
17 | C=CCn1c(=O)/c(=C/CCCCCC)[nH]c(=O)/c1=C/c1ccccc1OC | – | – | – | – | – | – | – | – | 2.6 µM | 3.6 µM | 13.9 µM | 9.3 µM | 7 µM | 11.2 µM | 9.8 µM | 10.6 µM
18 | C=CCn1c(=O)/c(=C/CCCCCCCCC)[nH]c(=O)/c1=C/c1ccccc1OC | – | – | – | Not Active | Not Active | Not Active | Not Active | Not Active | 18.8 µM | 10.4 µM | – | – | – | – | – | 3.4 µM
19 | C=CCn1c(=O)/c(=C/CCCCCCCCCC)[nH]c(=O)/c1=C/c1ccccc1OC | Not Active | Not Active | Not Active | Not Active | Not Active | Not Active | Not Active | Not Active | – | – | – | – | – | – | – | –
20 | Cn1c(=O)/c(=C/c2ccccc2)[nH]c(=O)/c1=C/c1ccccc1 | – | – | Not Active | – | – | – | – | – | 1.4 µM | 2.9 µM | 7.8 µM | 5.1 µM | 4.9 µM | 9.4 µM | 6.5 µM | –
21 | C=CCn1c(=O)/c(=C/CCCC)[nH]c(=O)/c1=C/c1cccc(OC)c1 | Not Active | Not Active | Not Active | Not Active | Not Active | Not Active | Not Active | Not Active | – | – | – | – | – | – | – | –
22 | C=CCn1c(=O)/c(=C/CCCCCCCCCCC)[nH]c(=O)/c1=C/c1ccccc1OC | Not Active | Not Active | Not Active | Not Active | Not Active | Not Active | Not Active | Not Active | – | – | – | – | – | – | – | –
23 | C=CCn1c(=O)/c(=C/CCCCC)[nH]c(=O)/c1=C/c1cccc(OC)c1 | Not Active | Not Active | Not Active | Not Active | Not Active | Not Active | Not Active | Not Active | – | – | – | – | – | – | – | –
24 | C=CCn1c(=O)/c(=C/CCCCC)[nH]c(=O)/c1=C/c1ccccc1OC | – | – | – | – | – | – | – | – | 1.9 µM | 2.6 µM | 8.7 µM | 6.9 µM | 5.7 µM | 10.7 µM | 7.4 µM | 13.4 µM
25 | C=CCn1c(=O)/c(=C/CCCCCCC)[nH]c(=O)/c1=C/c1cccc(OC)c1 | Not Active | Not Active | Not Active | Not Active | Not Active | Not Active | Not Active | Not Active | – | – | – | – | – | – | – | –
26 | C=CCn1c(=O)/c(=C/CCCCCCCCC)[nH]c(=O)/c1=C/c1ccc(OC)cc1 | – | – | – | Not Active | Not Active | Not Active | Not Active | Not Active | 10.3 µM | 11.7 µM | – | – | – | – | – | 5.3 µM
27 | C=CCn1c(=O)/c(=C/CCCCCCCC)[nH]c(=O)/c1=C/c1ccc(OC)cc1 | – | – | – | – | – | – | – | – | 3.7 µM | 5.6 µM | 15.8 µM | 10.1 µM | 8.1 µM | 7.9 µM | 10.8 µM | 26.5 µM
28 | C=CCn1c(=O)/c(=C/CC)[nH]c(=O)/c1=C/c1ccccc1OC | Not Active | Not Active | Not Active | Not Active | Not Active | Not Active | Not Active | Not Active | – | – | – | – | – | – | – | –
29 | C=CCn1c(=O)/c(=C/CC)[nH]c(=O)/c1=C/c1cccc(OC)c1 | Not Active | Not Active | Not Active | Not Active | Not Active | Not Active | Not Active | Not Active | – | – | – | – | – | – | – | –
